Measured values: patent US20120184728A1, “Compound Amycolose Derivative, Method for Producing the Same, and Use of the Same” (priority 2009, published 2012)
Entries after “also recorded” stand apart in the source; their conditions may differ.

tested on: Human prostate stromal cells PrSC; assay: Cell growth suppressive activity (MTT, Test Example 1); format: cell-based; conditions: 0.024 to 100 μg/mL, 3 days culture, MTT absorbance at 570 nm, result in words
Method: Human prostate stromal cells PrSC (product of Bio Whittaker) were added to DMEM (product of NISSUI PHARMACEUTICAL CO., LTD.) containing 10% by mass FBS (fetal bovine serum) (product of ICN Biomedicals) to prepare a cell suspension having a concentration of 5×10^4 cells/mL. The cell suspension was placed in a 96-well plate in an amount of 0.1 mL per well. Each of the amycolose derivatives (compounds 1, 2 and 3) was added to the wells at a final concentration of 0.024 μg/mL, 0.098 μg/mL, 0.391 μg/mL, 1.563 μg/mL, 6.25 μg/mL, 25 μg/mL or 100 μg/mL, followed by culturing in an incubator for 3 days at 37° C. and 5% CO2. Then, MTT (3-[4,5-dimethylthiazol-2-yl]-2,5-diphenyltetrazolium bromide) (product of Sigma Co.), which had been adjusted with a phosphate buffer to have a concentration of 5 mg/mL, was added to each well in an amount of 10 μL, followed by culturing in an incubator for 4 hours at 37° C. and 5% CO2. Subsequently, 10 μL of 20% by mass SDS (sodium dodecylsulphate) prepared with 10 mM hydrochloric acid was added to each well, and the plate was left to stand still overnight at 37° C. to dissolve formazan formed from MTT. Thereafter, the plate was measured for absorbance at 570 nm with an absorptiometer (hereinafter may be referred to as “amycolose derivative-added sample's absorbance”). Regarding as 100% the absorbance measured when no amycolose derivative was added (hereinafter may be referred to as “control absorbance”), the cell growth rate in each of the amycolose derivatives (compounds 1, 2 and 3) at the above concentrations was calculated using the following equation (1).
Cell growth rate (%)=amycolose derivative-added sample's absorbance/control absorbance×100 Equation (1)

Q: With CO[C@@H]1C[C@@](O)([C@H](C)NC(=O)c2[nH]c(C)c(Cl)c2Cl)[C@H](O)[C@@H](C)O1 [compound 3] as the compound, how does the “cell growth suppressive activity (cell growth rate, FIG. 5)” value (“cell growth suppressive activity” below) read?
A: The value was “exhibit cell growth suppressive activity”.

Q: Which “cell growth suppressive activity” value does the source give for CO[C@H]1C[C@@](O)([C@H](C)NC(=O)c2[nH]c(C)c(Cl)c2Cl)[C@H](O)[C@@H](C)O1 [compound 2] here?
A: The value was “exhibit cell growth suppressive activity”.

Q: For Cc1[nH]c(C(=O)N[C@@H](C)[C@]2(O)CC(O)O[C@H](C)[C@H]2O)c(Cl)c1Cl (stereo partly drawn) [compound 1], which “cell growth suppressive activity” value is on record?
A: The value was “exhibit cell growth suppressive activity; also recorded: remarkable cell growth suppressive activity”.
